Some test systems named below: SN12C renal; OVCAR-5 ovarian; SF-295 CNS; K-562 leukemia; SF-268 CNS; UACC-62 melanoma; HT29 colon; BT-549 breast; SF-539 CNS; UACC-257 melanoma; HS 578T breast; SK-MEL-28 melanoma; PC-3 prostate; KM12 colon; HOP-92 NSCLC; 786-0 renal; TK-10 renal; SK-OV-3 ovarian; SK-MEL-2 melanoma; ACHN renal.
Experiment in all cases: inhibition of tumour cell growth, NCI panel, 48 h

SMILES strings stand for the structures.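 Results reflect a 48-hour exposure of cells in 96-well plates to compound at five concentrations. TGI denotes the concentration required for complete inhibition of growth.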

From PubChem BioAssay (NCI) come the findings set out here.

Turning to `Oc1cc(CN2COc3ccccc32)c(O)cc1CNC1CCCCC1`, the TGI is over 100 µM with SN12C renal; over 100 µM in the experiment on OVCAR-5 ovarian; over 100 µM in the experiment on SF-295 CNS; 52.9 µM with K-562 leukemia; 33.6 µM in the experiment with SF-268 CNS; 55.1 µM in the experiment with UACC-62 melanoma. Moreover, the TGI with HT29 colon is 52.3 µM; in the experiment with BT-549 breast it was 90.9 µM; with SF-539 CNS it was 34.6 µM; in the experiment with UACC-257 melanoma it was 30.6 µM; with HS 578T breast, over 100 µM; in the experiment on SK-MEL-28 melanoma, 45 µM. Also, the TGI in the experiment with PC-3 prostate is 42 µM; in the experiment with KM12 colon, over 100 µM; in the experiment with HOP-92 NSCLC it was 75.4 µM; with 786-0 renal, 34 µM; in the experiment with TK-10 renal it was 38 µM; in the experiment on SK-OV-3 ovarian it was over 100 µM. For the same compound, the TGI with SK-MEL-2 melanoma stood at 50 µM; in the experiment with ACHN renal, 78.5 µM.
Turning to `COc1ccc2c(CCNS(=O)(=O)c3ccccc3)c(C(C)=O)[nH]c2c1`, the TGI in the experiment on SN12C renal, in the experiment with OVCAR-5 ovarian, in the experiment on SF-295 CNS, with K-562 leukemia, in the experiment with SF-268 CNS and in the experiment on UACC-62 melanoma was over 100 µM throughout. In addition, the TGI in the experiment with HT29 colon was over 100 µM; with BT-549 breast it was over 100 µM; in the experiment on SF-539 CNS, over 100 µM; in the experiment on UACC-257 melanoma, over 57.1 µM; with HS 578T breast, over 100 µM; with SK-MEL-28 melanoma, over 100 µM. The TGI in the experiment on PC-3 prostate, with KM12 colon, with HOP-92 NSCLC, in the experiment on 786-0 renal, with TK-10 renal and in the experiment with SK-OV-3 ovarian was over 100 µM in each case. Moreover, the TGI with SK-MEL-2 melanoma and in the experiment on ACHN renal was over 100 µM each time.
For the compound `Cc1c(-c2ccccc2)c(C#N)c2nnn(-c3cccc(Cl)c3)c(=O)n12`, the TGI with SN12C renal, in the experiment with OVCAR-5 ovarian, in the experiment on SF-295 CNS, with K-562 leukemia, in the experiment on SF-268 CNS and in the experiment with UACC-62 melanoma was over 100 µM in each case. Besides, the TGI in the experiment with HT29 colon, in the experiment with BT-549 breast, with SF-539 CNS, in the experiment on UACC-257 melanoma, with HS 578T breast and with SK-MEL-28 melanoma was over 100 µM in each case. For the same compound, the TGI in the experiment with PC-3 prostate is 75.9 µM; in the experiment with KM12 colon it was over 100 µM; with HOP-92 NSCLC it was over 100 µM; in the experiment on 786-0 renal it was 86.6 µM; in the experiment on TK-10 renal, over 100 µM; in the experiment on SK-OV-3 ovarian, over 100 µM. The TGI is 67.2 µM in the experiment on SK-MEL-2 melanoma and over 100 µM in the experiment on ACHN renal.
As to `O=C(CCOS(=O)(=O)CF)N1CCN(C(=O)CCOS(=O)(=O)CF)CC1`, the TGI in the experiment with SN12C renal was over 100 µM; in the experiment on OVCAR-5 ovarian it was over 100 µM; with SF-295 CNS, over 46.4 µM; with K-562 leukemia it was over 100 µM; in the experiment on SF-268 CNS, over 100 µM; with UACC-62 melanoma, over 100 µM. Moreover, the TGI in the experiment on HT29 colon, with BT-549 breast, in the experiment on SF-539 CNS, in the experiment with UACC-257 melanoma, with HS 578T breast and in the experiment on SK-MEL-28 melanoma was over 100 µM in each case. Moreover, the TGI with PC-3 prostate was over 100 µM; in the experiment on KM12 colon it was over 100 µM; with HOP-92 NSCLC, over 100 µM; in the experiment with 786-0 renal it was over 100 µM; with TK-10 renal, over 100 µM; in the experiment on SK-OV-3 ovarian, over 82.5 µM. Further, the values for the TGI in the experiment on SK-MEL-2 melanoma and in the experiment with ACHN renal were over 100 µM and over 88.7 µM, respectively.
Consider `CCN(CC)COC(=S)S`, for which the TGI in the experiment with SN12C renal, in the experiment on OVCAR-5 ovarian, with SF-295 CNS, in the experiment with K-562 leukemia, in the experiment on SF-268 CNS and in the experiment with UACC-62 melanoma was over 100 µM throughout. Moreover, the TGI was over 100 µM with HT29 colon; over 100 µM with BT-549 breast; over 100 µM with SF-539 CNS; over 76.3 µM with UACC-257 melanoma; over 100 µM in the experiment with HS 578T breast; over 100 µM in the experiment on SK-MEL-28 melanoma. For the same compound, the TGI in the experiment on PC-3 prostate, in the experiment on KM12 colon, in the experiment on HOP-92 NSCLC, in the experiment on 786-0 renal, in the experiment with TK-10 renal and with SK-OV-3 ovarian was over 100 µM in each case. The TGI in the experiment with SK-MEL-2 melanoma was 57 µM; with ACHN renal, over 100 µM.
As for `CCN(CC)C(=S)SS(=O)(=O)c1ccccc1[N+](=O)[O-]`, the TGI in the experiment with SN12C renal was 56.6 µM; in the experiment on OVCAR-5 ovarian, over 100 µM; in the experiment on SF-295 CNS it was over 100 µM; in the experiment with K-562 leukemia, 50.4 µM; in the experiment on SF-268 CNS, over 100 µM; in the experiment on UACC-62 melanoma, over 100 µM. In addition, the TGI was 50.4 µM in the experiment with HT29 colon; over 80.6 µM in the experiment with BT-549 breast; 34.1 µM in the experiment on SF-539 CNS; over 60.6 µM with UACC-257 melanoma; over 88.7 µM with HS 578T breast; 49.9 µM in the experiment on SK-MEL-28 melanoma. Moreover, the TGI is over 100 µM in the experiment on PC-3 prostate; over 50 µM with KM12 colon; over 54.8 µM with HOP-92 NSCLC; 33.2 µM with 786-0 renal; over 90.3 µM with TK-10 renal; over 100 µM in the experiment on SK-OV-3 ovarian. The results for the TGI with SK-MEL-2 melanoma and in the experiment on ACHN renal were over 100 µM and over 78.4 µM, respectively.
Take `Cn1c2c3c(F)c(F)ccc3nc-2cc2ccccc21`: the TGI is 6.23 µM in the experiment with SN12C renal; 9.07 µM with OVCAR-5 ovarian; 5.69 µM in the experiment on SF-295 CNS; over 100 µM in the experiment with K-562 leukemia; 25.4 µM in the experiment with SF-268 CNS; 15.8 µM in the experiment on UACC-62 melanoma. Besides, the TGI with HT29 colon is 12.1 µM; in the experiment on BT-549 breast, 20 µM; in the experiment with SF-539 CNS, 13.5 µM; with UACC-257 melanoma, 19.7 µM; with HS 578T breast, over 100 µM; with SK-MEL-28 melanoma it was 18.3 µM. For the same compound, the TGI in the experiment on PC-3 prostate turned out to be 19.4 µM; in the experiment with KM12 colon it was 4.76 µM; with HOP-92 NSCLC it was 49.1 µM; in the experiment with 786-0 renal it was 11.8 µM; with TK-10 renal, 3.91 µM; in the experiment on SK-OV-3 ovarian, 21.1 µM. Besides, the TGI turned out to be 14.1 µM with SK-MEL-2 melanoma and 4.68 µM with ACHN renal.
